Paper PMC9363195, “Preclinical Pharmacokinetics, Biodistribution, and Acute Toxicity Evaluation of Caerin 1.9 Peptide in Sprague Dawley Rats” (Evidence-based Complementary and Alternative Medicine : eCAM, 2022)
Peptide text beside a SMILES is read from it.

System: SD rats
Test: Gross necropsy and weight of vital organs in acute toxicity study
Assay type: in vivo, Sprague Dawley rats
Details: for Adrenals, absolute weight / Body weight / Brain, absolute weight / Heart, absolute weight / Kidneys, absolute weight / Liver, absolute weight / Ovaries, absolute weight / Spleen, absolute weight / Thymus, absolute weight / Thyroid, absolute weight / Uterus, absolute weight / Epididymides, absolute weight / Testis, absolute weight: day 15, mean ± SD
Experimental: Forty SD rats (20 males and 20 females) were randomly divided into 4 groups (Figure 1). All rats were given F3 once on the day of the experiment.
Twelve SD rats (6 males, 6 females) were given a daily subcutaneous injection of F3 at a dose of 10.0 mg/kg for consecutive 14 days. The first day of administration was recorded as day 1.
For 14 days, the body weight was measured before F3 administration on the first day of the experiment and once a week thereafter, with additional measurements on the day before and on the day of the planned autopsy. Food intake was recorded once a week. The rats were anesthetized by inhalation of 70% CO2/30% O2 before dissection, and blood samples were taken for hematology and biochemical analysis. The collected tissue was weighed and preserved for pathological examination.
After blood was collected at the predetermined time points, all rats were euthanized and subjected to a comprehensive general autopsy, which included a thorough examination of the external surface of the body, all foramen, cranial cavity, external surface of the brain, chest, abdomen, pelvic cavity, viscera, cervix, and genitalia. The adrenal gland, brain (brain, cerebellum, and brain stem), epididymis, heart, kidney, liver, ovary, spleen, testis, thymus, thyroid gland, and uterus were carefully collected, weighed, and documented before being kept in 10% neutral formalin buffer (10% NBF).

[1] = female SD rats, s.c. 10.0 mg/kg daily x14 d, n=6
[2] = female SD rats, single s.c. 1.0 mg/kg, n=5
[3] = female SD rats, single s.c. 10.0 mg/kg, n=5
[4] = female SD rats, single s.c. 100.0 mg/kg, n=5
[5] = male SD rats, s.c. 10.0 mg/kg daily x14 d, n=6
[6] = male SD rats, single s.c. 1.0 mg/kg, n=5
[7] = male SD rats, single s.c. 10.0 mg/kg, n=5
[8] = male SD rats, single s.c. 100.0 mg/kg, n=5

CC[C@H](C)[C@H](NC(=O)[C@H](CO)NC(=O)CNC(=O)[C@H](CC(C)C)NC(=O)[C@@H](NC(=O)CNC(=O)[C@H](Cc1ccccc1)NC(=O)[C@H](CC(C)C)NC(=O)CN)C(C)C)C(=O)N[C@@H](C)C(=O)N[C@@H](CCCCN)C(=O)N[C@@H](Cc1c[nH]cn1)C(=O)N[C@H](C(=O)N[C@@H](CC(C)C)C(=O)N1CCC[C@H]1C(=O)N[C@@H](Cc1c[nH]cn1)C(=O)N[C@H](C(=O)N[C@H](C(=O)N1CCC[C@H]1C(=O)N[C@H](C(=O)N[C@H](C(=O)N[C@@H](C)C(=O)N[C@@H](CCC(=O)O)C(=O)N[C@@H](CCCCN)C(=O)N[C@@H](CC(C)C)C(N)=O)[C@@H](C)CC)C(C)C)C(C)C)C(C)C)C(C)C [F3, Caerin 1.9] (H-GLFGVLGSIAKHVLPHVVPVIAEKL-NH2)
gross necropsy findings (SD rats, s.c. 10.0 mg/kg daily x14 d, all rats): diffuse subcutaneous bleeding at the injection site | influence on absolute and relative organ weight (SD rats, single or repeated s.c. injections): no influence | gross necropsy findings (SD rats, single s.c. 100.0 mg/kg): skin scab and thickening at the administration site in all male rats and four female rats | Adrenals, absolute weight [1]: 0.0793 ± 0.0101 g | Body weight [1]: 233.55 ± 16.03 g | Brain, absolute weight [1]: 1.9517 ± 0.0244 g | Heart, absolute weight [1]: 1.1247 ± 0.1287 g | Kidneys, absolute weight [1]: 1.7017 ± 0.123 g | Liver, absolute weight [1]: 7.5278 ± 0.6229 g | Ovaries, absolute weight [1]: 0.093 ± 0.0151 g | Spleen, absolute weight [1]: 0.6908 ± 0.0750 g | Thymus, absolute weight [1]: 0.427 ± 0.0886 g | Thyroid, absolute weight [1]: 0.0242 ± 0.0053 g | Uterus, absolute weight [1]: 0.4797 ± 0.1336 g | Adrenals, absolute weight [2]: 0.0728 ± 0.0097 g | Body weight [2]: 238.86 ± 7.94 g | Brain, absolute weight [2]: 2.0504 ± 0.0552 g | Heart, absolute weight [2]: 1.1086 ± 0.1559 g | Kidneys, absolute weight [2]: 1.9364 ± 0.118 g | Liver, absolute weight [2]: 7.7464 ± 0.2893 g | Ovaries, absolute weight [2]: 0.1036 ± 0.0242 g | Spleen, absolute weight [2]: 0.57 ± 0.1214 g | Thymus, absolute weight [2]: 0.5216 ± 0.0746 g | Thyroid, absolute weight [2]: 0.0282 ± 0.0029 g | Uterus, absolute weight [2]: 0.6212 ± 0.0948 g | Adrenals, absolute weight [3]: 0.0758 ± 0.0114 g | Body weight [3]: 243.48 ± 10.53 g | Brain, absolute weight [3]: 2.0232 ± 0.044 g | Heart, absolute weight [3]: 0.999 ± 0.0943 g | Kidneys, absolute weight [3]: 1.8596 ± 0.1438 g | Liver, absolute weight [3]: 7.3692 ± 0.709 g | Ovaries, absolute weight [3]: 0.096 ± 0.0182 g | Spleen, absolute weight [3]: 0.5508 ± 0.0854 g | Thymus, absolute weight [3]: 0.535 ± 0.0762 g | Thyroid, absolute weight [3]: 0.0338 ± 0.005 g | Uterus, absolute weight [3]: 0.4664 ± 0.1167 g | Adrenals, absolute weight [4]: 0.076 ± 0.0116 g | Body weight [4]: 238.86 ± 9.44 g | Brain, absolute weight [4]: 1.9918 ± 0.0665 g | Heart, absolute weight [4]: 1.0914 ± 0.0821 g | Kidneys, absolute weight [4]: 1.924 ± 0.0685 g | Liver, absolute weight [4]: 7.8582 ± 0.5028 g | Ovaries, absolute weight [4]: 0.108 ± 0.0223 g | Spleen, absolute weight [4]: 0.545 ± 0.0571 g | Thymus, absolute weight [4]: 0.478 ± 0.0725 g | Thyroid, absolute weight [4]: 0.0344 ± 0.0057 g | Uterus, absolute weight [4]: 0.5842 ± 0.0922 g | Adrenals, absolute weight [5]: 0.0612 ± 0.0041 g | Body weight [5]: 342.57 ± 13.86 g | Brain, absolute weight [5]: 2.062 ± 0.1162 g | Epididymides, absolute weight [5]: 1.0408 ± 0.0584 g | Heart, absolute weight [5]: 1.5727 ± 0.082 g | Kidneys, absolute weight [5]: 2.5043 ± 0.0600 g | Liver, absolute weight [5]: 9.9218 ± 0.6297 g | Spleen, absolute weight [5]: 0.741 ± 0.1802 g | Testis, absolute weight [5]: 3.3857 ± 0.1596 g | Thymus, absolute weight [5]: 0.4433 ± 0.0724 g | Thyroid, absolute weight [5]: 0.0358 ± 0.0092 g | Adrenals, absolute weight [6]: 0.0564 ± 0.0078 g | Body weight [6]: 380.74 ± 8.63 g | Brain, absolute weight [6]: 2.163 ± 0.0999 g | Epididymides, absolute weight [6]: 0.9464 ± 0.0677 g | Heart, absolute weight [6]: 1.485 ± 0.1408 g | Kidneys, absolute weight [6]: 2.8174 ± 0.3469 g | Liver, absolute weight [6]: 11.4326 ± 0.5122 g | Spleen, absolute weight [6]: 0.7378 ± 0.14 g | Testis, absolute weight [6]: 3.328 ± 0.2025 g | Thymus, absolute weight [6]: 0.545 ± 0.1054 g | Thyroid, absolute weight [6]: 0.0494 ± 0.0051 g | Adrenals, absolute weight [7]: 0.0654 ± 0.0073 g | Body weight [7]: 397.34 ± 21.46 g | Brain, absolute weight [7]: 2.181 ± 0.1198 g | Epididymides, absolute weight [7]: 0.9564 ± 0.0348 g | Heart, absolute weight [7]: 1.728 ± 0.2013 g | Kidneys, absolute weight [7]: 3.151 ± 0.1131 g | Liver, absolute weight [7]: 12.5468 ± 0.8106 g | Spleen, absolute weight [7]: 0.8204 ± 0.1012 g | Testis, absolute weight [7]: 3.2666 ± 0.0813 g | Thymus, absolute weight [7]: 0.6256 ± 0.1022 g | Thyroid, absolute weight [7]: 0.0498 ± 0.0093 g | Adrenals, absolute weight [8]: 0.066 ± 0.0075 g | Body weight [8]: 394.58 ± 14.44 g | Brain, absolute weight [8]: 2.1528 ± 0.0816 g | Epididymides, absolute weight [8]: 0.9956 ± 0.0459 g | Heart, absolute weight [8]: 1.6352 ± 0.0401 g | Kidneys, absolute weight [8]: 2.9858 ± 0.1294 g | Liver, absolute weight [8]: 12.2242 ± 0.7073 g | Spleen, absolute weight [8]: 0.793 ± 0.109 g | Testis, absolute weight [8]: 3.4182 ± 0.3029 g | Thymus, absolute weight [8]: 0.6608 ± 0.082 g | Thyroid, absolute weight [8]: 0.0482 ± 0.0075 g
